Measured values published in ChEMBL document CHEMBL5728389, “Nicotinyl alcohol ether derivative, preparation method therefor, and pharmaceutical composition and uses thereof” (2021).

Biological target: Programmed cell death protein 1/Programmed cell death 1 ligand 1 (Homo sapiens, UniProt Q15116+Q9NZQ7)
Test: In Vitro Activity Assay: In vitro activity evaluation: Cisbio PD-1/PD-L1 binding assay kit was applied for the detection method of in vitro enzymology level.Screening Principles and Methods of PD-1/PD-L1 Small Molecule Inhibitors1) Principle: PD-1 protein is with HIS tag, and PD-1 ligand PD-L1 is with hFc tag. Eu labeled anti-hFc antibody and XL665 labeled anti-HIS antibody are combined with the above two label proteins respectively. After laser excitation, energy can be transferred from donor Eu to receptor XL665, allowing XL665 to glow. […] Reagents should be dispensed in the following order. For 384-well white ELISA plate, 2 μl of diluent or target compound diluted with diluent was added to each well, and then 4 μl of PD-1 protein and 4 μl of PD-L1 protein were added per well, incubated for 15 min at room temperature; and 10 μl of a mixture of anti-Tag1-Eu3+ and anti-Tag2-XL665 was added per well and incubated for 1 h to 4 h at room temperature and the fluorescence signals at 665 nm and 620 nm were measured with an Envison instrument. HTRF rate=(665 nm/620 nm)*104. 8-10 concentrations were detected for each compound and IC50 was calculated by Graphpad software.
Assay type: protein-complex assay

Programmed cell death protein 1/Programmed cell death 1 ligand 1, sequence (Q15116 whole entry): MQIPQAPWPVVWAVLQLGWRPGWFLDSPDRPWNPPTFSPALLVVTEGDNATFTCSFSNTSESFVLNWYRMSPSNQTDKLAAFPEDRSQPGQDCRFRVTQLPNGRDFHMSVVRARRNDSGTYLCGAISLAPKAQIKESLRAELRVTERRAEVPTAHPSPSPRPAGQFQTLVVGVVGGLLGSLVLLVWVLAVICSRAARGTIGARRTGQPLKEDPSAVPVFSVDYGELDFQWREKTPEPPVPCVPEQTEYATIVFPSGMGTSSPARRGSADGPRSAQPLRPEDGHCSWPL
Programmed cell death protein 1/Programmed cell death 1 ligand 1, sequence (Q9NZQ7 whole entry): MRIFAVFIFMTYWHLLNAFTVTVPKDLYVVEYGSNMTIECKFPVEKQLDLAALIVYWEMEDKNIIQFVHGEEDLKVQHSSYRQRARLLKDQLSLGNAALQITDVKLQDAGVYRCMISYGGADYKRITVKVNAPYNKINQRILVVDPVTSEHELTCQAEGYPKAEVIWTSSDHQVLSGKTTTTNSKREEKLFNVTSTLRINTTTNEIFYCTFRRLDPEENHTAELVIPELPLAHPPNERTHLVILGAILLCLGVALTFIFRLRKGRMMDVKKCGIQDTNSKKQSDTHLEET

Row | Compound | IC50
1 | O=C(O)[C@H](CO)NCc1cc(Cl)c(OCc2cccc(-c3ccccc3)c2Cl)cc1OCc1cccnc1 | 40.1 nM
2 | O=C(O)[C@H](CO)NCc1cc(Cl)c(OCc2cccc(-c3ccccc3)c2F)cc1OCc1cccnc1 | 134 nM
3 | O=C(O)[C@H](CO)NCc1cc(Cl)c(OCc2cccc(-c3ccccc3)c2)cc1OCc1cccnc1 | 318 nM
4 | NC(=O)C[C@H](NCc1cc(Cl)c(OCc2cccc(-c3ccccc3)c2Br)cc1OCc1cccnc1)C(=O)O | 835 nM
5 | C/C(=C\C(=O)O)NCc1cc(Cl)c(OCc2cccc(-c3ccccc3)c2Br)cc1OCc1cccnc1 | 2.33 nM
6 | O=S(=O)(O)CCNCc1cc(Cl)c(OCc2cccc(-c3ccccc3)c2Br)cc1OCc1cccnc1 | 16200 nM
7 | OCCN(CCO)Cc1cc(Cl)c(OCc2cccc(-c3ccccc3)c2Br)cc1OCc1cccnc1 | 51 nM
8 | OCCNCc1cc(Cl)c(OCc2cccc(-c3ccccc3)c2Br)cc1OCc1cccnc1 | 53.8 nM
9 | C[C@H](NCc1cc(Cl)c(OCc2cccc(-c3ccccc3)c2Br)cc1OCc1cccnc1)C(=O)O | 5.29 nM
